Data set [1] relates to Sprague-Dawley rats. Description: In vivo Study 4 (dimethomorph follow-up), reproductive/developmental toxicity, AGD.
The target in data set [2] is T1, androgen receptor (AR) (Homo sapiens, UniProt P10275).
T1 construct: host or cells: AR-EcoScreen cells
T1 sequence (P10275 1-920): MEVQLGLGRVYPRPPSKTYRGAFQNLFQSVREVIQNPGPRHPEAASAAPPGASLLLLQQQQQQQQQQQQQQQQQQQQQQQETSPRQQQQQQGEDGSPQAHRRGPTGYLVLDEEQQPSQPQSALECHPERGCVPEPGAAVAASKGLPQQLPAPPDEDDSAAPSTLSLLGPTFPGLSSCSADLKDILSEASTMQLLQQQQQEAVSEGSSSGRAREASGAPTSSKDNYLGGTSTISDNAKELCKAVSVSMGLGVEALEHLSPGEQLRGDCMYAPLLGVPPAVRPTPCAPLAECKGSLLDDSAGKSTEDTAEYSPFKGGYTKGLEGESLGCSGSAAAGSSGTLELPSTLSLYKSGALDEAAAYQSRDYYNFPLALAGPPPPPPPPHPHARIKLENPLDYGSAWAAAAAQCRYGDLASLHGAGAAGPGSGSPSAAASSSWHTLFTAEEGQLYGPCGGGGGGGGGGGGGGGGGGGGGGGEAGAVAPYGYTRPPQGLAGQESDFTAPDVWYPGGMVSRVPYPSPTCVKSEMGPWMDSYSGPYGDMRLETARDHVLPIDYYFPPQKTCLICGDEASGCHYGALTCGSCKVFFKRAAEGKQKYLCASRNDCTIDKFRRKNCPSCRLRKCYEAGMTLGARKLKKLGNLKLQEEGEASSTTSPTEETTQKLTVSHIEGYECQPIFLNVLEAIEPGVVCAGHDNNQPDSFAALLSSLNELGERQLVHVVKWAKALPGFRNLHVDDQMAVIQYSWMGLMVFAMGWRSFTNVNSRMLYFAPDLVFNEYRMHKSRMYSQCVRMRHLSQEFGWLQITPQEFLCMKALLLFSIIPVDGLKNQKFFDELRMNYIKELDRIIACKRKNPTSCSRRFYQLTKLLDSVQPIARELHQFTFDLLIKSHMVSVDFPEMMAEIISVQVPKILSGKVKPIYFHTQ
Set-up: method as in Orton et al. (2011). The conditions noted are these: ref Orton et al. (2011), cited from earlier work.

Data set [3] has as its system Wistar rats. The conditions noted are these: rat, in vivo; cited from earlier work.
The target in data set [4] is T1, androgen receptor (AR). Description: AR-EcoScreen androgen receptor transcriptional activation assay (AR antagonism). The class given is cell-based. Here is the method:
Experiments were run with three technical replicates and repeated three times. The mean value of technical replicates represents one biological replicate. AR-EcoScreen™ cells (JCRB1328; Japanese Collection of Research Bioresources) were grown in CellBIND® surface cell culture flasks (Corning Inc.) in growth medium consisting of Gibco® Dulbecco’s Modified Eagle’s Medium/F-12 (DMEM/F-12) Nutrient Mixture with L-glutamine and 4-(2-hydroxyethyl)-1-piperazineethanesulfonic acid (HEPES) and without phenol red supplemented with 5% fetal bovine serum (FBS), 1% penicillin-streptomycin, 200μg/mL Zeocin™ selection reagent, and 100μg/mL Hygromycin B (all reagents from Invitrogen, Life Technologies). The cells were incubated at 37°C in a humidified atmosphere of 5% carbon dioxide ( CO2 ) and 95% air. On the day before the experiment, cells were plated in white 96-well plates (Corning Inc.) at a density of 9,000 cells/well in assay medium consisting of Gibco® DMEM/F-12 Nutrient Mixture medium, 1% penicillin-streptomycin, with 5% dextran-coated charcoal-treated FBS (all reagents from Invitrogen, Life Technologies). On the following day, the medium was changed to assay medium containing the known AR agonist R1881 (Perkin Elmer) in 2-fold serial dilutions from 0.008 to 1 nM or the known AR antagonist hydroxyflutamide (CASRN 52806-53-8, Toronto Research Chemicals) in 3-fold serial dilutions from […] together with 0.1 nM R1881. […] The DMSO vehicle concentrations were kept constant in all wells (0.1%). Following approximately 20 h of exposure to test compounds firefly luminescence was measured in a luminometer (LUMIstar® Galaxy, BMG LABTECH) using Dual-Glo® Luciferase Reagent from the Dual-Glo® Luciferase Assay System from Promega. Cell viability was measured by Renilla luminescence using Dual-Glo® Stop & Glo® Reagent from the Dual-Glo® Luciferase Assay System.

In general, IC50 refers to the concentration needed to halve the response being measured. By IC20 is commonly meant the concentration at which the effect reaches the 20% level.

Each structure is given as a SMILES string. Where two headings read alike, the source gives them in different places.

Regarding `COc1ccc(C(=CC(=O)N2CCOCC2)c2ccc(Cl)cc2)cc1OC` [Dimethomorph, dimethomorph], in data set [1] (20 mg/kg/bw), the “% perinatal loss” value is 3.5 ± 6.3%, the “% postimplantation loss” value is reported as 2.6 ± 4.9%, the “% postnatal deaths” value was 1.6 ± 3.7% and the “AGD females (mm)” value turned out to be 2.0 ± 0.1 mm. Moreover, in data set [1] (20 mg/kg/bw), the “AGD females (units)” value came to 12.4 ± 0.8 units, the AGD index females is listed as 1.1 ± 0.1, the AGD index males worked out at 1.94 ± 0.1 and the “AGD males (mm)” value is 3.74 ± 0.2 mm. In data set [1] (60 mg/kg/bw), the “% perinatal loss” value is on record as 5.7 ± 6.0%, the “% postimplantation loss” value is on record as 4.3 ± 5.2%, the “% postnatal deaths” value was 1.4 ± 3.1% and the “AGD females (mm)” value amounted to 1.9 ± 0.1 mm. Also, in data set [1] (60 mg/kg/bw), the “AGD females (units)” value was 11.8 ± 0.6 units, the AGD index females came out at 1.0 ± 0.0, the AGD index males amounted to 1.87 ± 0.1 and the “AGD males (mm)” value was found to be 3.51 ± 0.2 mm. Also, the Maternal toxicity entry in data set [1] (180 mg/kg per day, increased postimplantation and perinatal loss, higher postnatal death rate) is reported as “indications for a mild maternal toxicity”. In data set [1] (180 mg/kg/bw), the “% perinatal loss” value stood at 13.3 ± 11.8%, the “% postimplantation loss” value is given as 10.1 ± 12.6%, the “% postnatal deaths” value was determined as 3.2 ± 7.2% and the “AGD females (mm)” value turned out to be 2.0 ± 0.2 mm. Moreover, in data set [1] (180 mg/kg/bw), the “AGD females (units)” value is on record as 12.1 ± 0.9 units, the AGD index females is 1.1 ± 0.0, the AGD index males is on record as 1.90 ± 0.11 and the “AGD males (mm)” value worked out at 3.57 ± 0.2 mm. Also, in data set [2] (read-out: AR antagonism (IC50), MDA-kb2 cells), the 50% inhibitory concentration (IC50) was 900 nM. Besides, the IC20 in data set [2] (read-out: AR antagonism (IC20 µM)) is 300 nM.
On to `CC12CC1(C)C(=O)N(c1cc(Cl)cc(Cl)c1)C2=O` (stereo not drawn) [Procymidone, procymidone, reference compound], for which the “AGDI ED50” value in data set [3] is 69.4 mg/kg BW. 400 nM corresponded to half-maximal inhibition in data set [4] (IC50). The “AR antagonism, in words” value in data set [4] (reporter gene assay) is listed as “antagonized the AR”.

The values are drawn from PMC7687371, “Quantitative in Vitro to in Vivo Extrapolation (QIVIVE) for Predicting Reduced Anogenital Distance Produced by Anti-Androgenic Pesticides in a Rodent Model for Male Reproductive Disorders” (Environmental Health Perspectives, 2020).
